Assay results: patent US20090131354A1, “miR-126 REGULATED GENES AND PATHWAYS AS TARGETS FOR THERAPEUTIC INTERVENTION” (priority 2007, published 2009)

Legend:
Format in all cases: cell-based, human
H460 lung cancer cells [1] = experiment: Alamar Blue proliferation assay, H460; settings: for % proliferation: relative to NC miRNA (100%)
From the text: (§1) The inventors assessed the therapeutic effect of hsa-miR-126 for lung cancer by using 11 individual lung cancer cell lines. To measure cellular proliferation of lung cancer cells, the following non-small cell lung cancer (NSCLC) cells were used: cells derived from lung adenocarcinoma (A549, H1299, H522, H838, Calu-3, HCC827, HCC2935), cells derived from lung squamous cell carcinoma (H520, H226), cells derived from lung bronchioalveolar carcinoma (H1650), and cells derived from lung large cell carcinoma (H460). Synthetic hsa-miR-126 (Pre-miR™-hsa-miR-126, Ambion cat. no. AM17100) or negative control (NC) miRNA (Pre-miR™ microRNA Precursor Molecule-Negative Control #2; Ambion cat. no. AM17111) was delivered via lipid-based transfection into A549, H1299, H522, H838, Calu-3, HCC827, HCC2935, H520, H1650, and H460 cells, and via electroporation into H226 cells.
Lipid-based reverse transfections were carried out in triplicate according to a published protocol (Ovcharenko et al., 2005) and the following parameters: Cells (5,000-12,000 per 96 well), 0.1-0.2 μl Lipofectamine™ 2000 (cat. no. 11668-019, Invitrogen Corp., Carlsbad, Calif., USA) in 20 μl OptiMEM (Invitrogen), 30 nM final concentration of miRNA in 100 μl. Electroporation of H226 cells was carried out using the BioRad Gene Pulser Xcell™ instrument (BioRad Laboratories Inc., Hercules, Calif., USA) with the following settings: 5×10^6 cells with 5 μg miRNA in 200 μl OptiMEM (1.6 μM miRNA), square wave pulse at 250 V for 5 ms. Electroporated H226 cells were seeded at 7,000 cells per 96-well in a total volume of 100 μl. All cells except for Calu-3 cells were harvested 72 hours post transfection or electroporation for assessment of cellular proliferation. Calu-3 cells were harvested 10 days post transfection. Proliferation assays were performed using Alamar Blue (Invitrogen) following the manufacturer's instructions. As a control for inhibition of cellular proliferation, siRNA against the motor protein kinesin 11, also known as Eg5, was used. Eg5 is essential for cellular survival of most eukaryotic cells and a lack thereof leads to reduced cell proliferation and cell death (Weil et al., 2002). siEg5 was used in lipid-based transfection following the same experimental parameters that apply to miRNA. The inventors also used a DNA topoisomerase II inhibitor, etoposide, at a final concentration of 10 μM and 50 μM as an internal standard for the potency of miRNAs. Etoposide is an FDA-approved DNA topoisomerase II inhibitor in the treatment of lung cancer. […] Percent (%) proliferation values from the Alamar Blue assay were normalized to values from cells treated with negative control miRNA. […]

H522 lung cancer cells = experiment: Alamar Blue proliferation assay, H522; settings: relative to NC miRNA (100%)
From the text: as §1
(§2) Lipid-based reverse transfections were carried out in triplicate according to a published protocol (Ovcharenko et al., 2005) and the following parameters: Cells (5,000-12,000 per 96 well), 0.1-0.2 μl Lipofectamine™ 2000 (cat. no. 11668-019, Invitrogen Corp., Carlsbad, Calif., USA) in 20 μl OptiMEM (Invitrogen), 30 nM final concentration of miRNA in 100 μl. Electroporation of H226 cells was carried out using the BioRad Gene Pulser Xcell™ instrument (BioRad Laboratories Inc., Hercules, Calif., USA) with the following settings: 5×10^6 cells with 5 μg miRNA in 200 μl OptiMEM (1.6 μM miRNA), square wave pulse at 250 V for 5 ms. Electroporated H226 cells were seeded at 7,000 cells per 96-well in a total volume of 100 μl. All cells except for Calu-3 cells were harvested 72 hours post transfection or electroporation for assessment of cellular proliferation. Calu-3 cells were harvested 10 days post transfection. Proliferation assays were performed using Alamar Blue (Invitrogen) following the manufacturer's instructions. As a control for inhibition of cellular proliferation, siRNA against the motor protein kinesin 11, also known as Eg5, was used. […]

H520 lung cancer cells = experiment: Alamar Blue proliferation assay, H520
From the text: as §1, §2

H1299 lung cancer cells = experiment: Alamar Blue proliferation assay, H1299; settings: relative to NC miRNA (100%)
From the text: as §1, §2

H460 lung cancer cells [2] = experiment: Pair-wise miRNA combinations, Alamar Blue proliferation; settings: for % proliferation: mock-transfected cells, 48 h
From the text: miRNAs function in multiple pathways controlling multiple cellular processes. Cancer cells frequently show aberrations in several different pathways, which determine their oncogenic properties. […] The inventors assessed the efficacy of pair-wise miRNA combinations, administering hsa-miR-126 concurrently with either hsa-miR-34a, hsa-miR-124a, hsa-miR-147, hsa-let-7b, hsa-let-7c or hsa-let-7g (Pre-miR™ miRNA, Ambion cat. no. AM17100). H460 lung cancer cells were transiently reverse-transfected in triplicates with each miRNA at a final concentration of 300 pM, resulting in 600 pM of oligonucleotide. For negative controls, 600 pM of Pre-miR™ microRNA
Precursor Molecule-Negative Control #2 (Ambion cat. no. AM17111) were used. To correlate the effect of various combinations with the effect of the sole miRNA, each miRNA at 300 pM was also combined with 300 pM negative control miRNA. Reverse transfection was carried using the following parameters: 7,000 cells per 96 well, 0.15 μl Lipofectamine™ 2000 (Invitrogen) in 20 μl OptiMEM (Invitrogen), 100 μl total transfection volume. As an internal control for the potency of miRNA, etoposide was added at 10 μM and 50 μM to mock-transfected cells, 24 hours after transfection for the following 48 hours. Cells were harvested 72 hours after transfection and subjected to Alamar Blue assays (Invitrogen). Percent proliferation values from the Alamar Blue assay were normalized to those obtained from cells treated with 600 pM negative control miRNA. Data are expressed as % proliferation relative to negative control miRNA-treated cells (Table 8).
Additive activity of pair-wise combinations (e.g. hsa-miR-126 plus hsa-let-7b) is defined as an activity that is greater than the sole activity of each miRNA (e.g., the activity of hsa-miR-126 plus hsa-let-7b is greater than that observed for hsa-miR-126 plus NC and the activity of hsa-miR-126 plus hsa-let-7b is greater than that observed for hsa-let-7b plus NC). […]

Compound | % proliferation (H460 lung cancer cells [1]; H460, 10 μM) [%] | % proliferation (H460 lung cancer cells [1]; H460, 50 μM) [%] | % proliferation (H522 lung cancer cells; H522, 10 μM) [%] | % proliferation (H522 lung cancer cells; H522, 50 μM) [%] | % proliferation (H520 lung cancer cells; H520, 50 μM, relative to NC miRNA (100%)) [%] | % proliferation (H520 lung cancer cells; H520, relative to NC miRNA (100%)) [%] | % proliferation (H1299 lung cancer cells; H1299, 10 μM) [%] | % proliferation (H1299 lung cancer cells; H1299, 50 μM) [%] | % proliferation (H460 lung cancer cells [2]; H460, 10 μM) [%] | % proliferation (H460 lung cancer cells [2]; H460, 50 μM) [%] | reduction of proliferation (maximal inhibitory activity) (H460 lung cancer cells [1]; H460, 30 nM) [%] | % proliferation (H460 lung cancer cells [1]; H460, 30 nM, 72 h) [%] | % proliferation (H522 lung cancer cells; H522, 30 nM, 72 h) [%] | % proliferation (H520 lung cancer cells; H520, 30 nM, 72 h, relative to NC miRNA (100%)) [%] | % proliferation (H1299 lung cancer cells; H1299, 30 nM, 72 h) [%] | reduction of proliferation (H460 lung cancer cells [2]; H460, 300 pM) [%]
COc1cc([C@@H]2c3cc4c(cc3[C@@H](O[C@@H]3O[C@@H]5CO[C@@H](C)O[C@H]5[C@H](O)[C@H]3O)[C@H]3COC(=O)[C@H]23)OCO4)cc(OC)c1O [etoposide] | 32.13 | 27.82 | 82.13 | 61.08 | 48.53 | 66.80 | 79.65 | 54.38 | 20.19 | 14.94 |  |  |  |  |  | 
hsa-miR-126 (UCGUACCGUGAGUAAUAAUGC; synthetic pre-miR form, further chemistry not given here) [Synthetic hsa-miR-126 (Pre-miR™-hsa-miR-126, Ambion cat. no. AM17100)] |  |  |  |  |  |  |  |  |  |  | 71 | 29.09 | 74.62 | 80.99 | 89.37 | 10.54
